Structures can show the parent of a compound that is named as a salt. Where two headings read alike, the source gives them in different places.
Experiments:
Pim-1 = Pim-1 (Homo sapiens (Human), UniProt P11309); assay: ADP-Glo Kinase Assay, Pim-1; assay type: biochemical; conditions: 1 μM compound; for inhibition at 1 µM: read-out: Pim-1 % INH (1 μM)
Outline: (§1)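 Buffer was MOPS 5 mM (pH 7.5) with MgCl2, EDTA and DTT; ATP set at apparent Km per kinase. Compounds were diluted in assay buffer to 1000 nM. Kinase-generated ADP was converted to luciferase signal and normalised to percent inhibition.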

Pim-2 = Pim-2 (Homo sapiens (Human), UniProt Q9P1W9); assay: ADP-Glo Kinase Assay, Pim-2; assay type: biochemical; conditions: 1 μM compound; for inhibition at 1 µM: read-out: Pim-2 % INH (1 μM)
Procedure: (§2) Compounds of the present invention were tested for their inhibitory activity against Pim-1, Pim-2, Pim-3, Flt3 wt, Flt3 ITD, CDK2/E and DYRK1. The testing of the compounds was carried out using the ADP-Glo™ Kinase Assay from Promega Corporation (Madison, Wis., USA).
(§3) The ADP-Glo™ Kinase Assay is a luminescent ADP detection assay to measure kinase activity by quantifying the amount of ADP produced during a kinase reaction. The kinase assay is performed in kinase assay buffer (5 mM MOPS, pH 7.5, 5 mM MgCl2, 0.4 mM EDTA, 1.5 mM DTT). Test samples initially dissolved in DMSO at 10 mM were diluted with the assay buffer to 1000 nM. A 30 μL volume/well of a mixture of substrates containing ATP (final ATP concentration in each kinase assay was equal to its apparent ATP Km).
(§4) The assay was performed in two steps: first, after the kinase reaction, an equal volume of ADP-Glo™ Reagent was added to terminate the kinase reaction and deplete the remaining ATP. Second, the Kinase Detection Reagent was added to simultaneously convert ADP to ATP and allowed the newly synthesized ATP to be measured using a luciferase/luciferin reaction. The luminescent signal generated was proportional to the ADP concentration produced and was correlated with kinase activity. A microplate spectrophotometer (Synergy 2 multi-mode microplate reader [BioTek]) was used for detecting the luminescence. The data was normalized and the percent of inhibition was obtained according to the following equation: […]

Pim-3 = Pim-3 (Homo sapiens (Human), UniProt Q86V86); assay: ADP-Glo Kinase Assay, Pim-3; assay type: biochemical; conditions: 1 μM compound; for inhibition at 1 µM: read-out: Pim-3 % INH (1 μM)
Procedure: as §2, §3, §4

FLT3wt = FLT3wt (Homo sapiens (Human), UniProt P36888); assay: ADP-Glo Kinase Assay, Flt3 wt; assay type: biochemical; conditions: 1 μM compound; for inhibition at 1 µM: read-out: Flt3wt % INH (1 μM)
Outline: as §1

CDK2/E = CDK2/E (Homo sapiens (Human), UniProt P24941); assay: ADP-Glo Kinase Assay, CDK2/E; assay type: biochemical; conditions: 1 μM compound; for inhibition at 1 µM: read-out: CDK2/E % INH (1 μM)
Outline: as §1

MV4-11 cells = assay: Growth inhibition, MTS assay, MV4-11; assay type: cell-based, Human; conditions: MTS cell viability, read-out: MV4-11 ED50
HEL92 cells = assay: Growth inhibition, MTS assay, HEL92; assay type: cell-based, Human; conditions: MTS cell viability, read-out: HEL92 ED50
HepG2 cells = assay: Growth inhibition, MTS assay, HepG2; assay type: cell-based, Human; conditions: MTS cell viability, read-out: HepG2 ED50
SW-480 cells = assay: Growth inhibition, MTS assay, SW-480; assay type: cell-based, Human; conditions: 72 hours, MTS cell viability, read-out: SW-480 ED50
Source text: The following cell lines, were obtained and used in tests as outlined below: • Human myelomonocytic, biphenotypic leukemia MV4-11 cells (harboring a Flt3-ITD mutation); • Human Acute Myeloid Leukemia MOLM16 cells; • Human Acute Myeloid Leukemia MOLM13 cells (harboring a Flt3-ITD mutation); • Human Myeloid Leukemia KG-1 cells; • Human erythroleukemia HEL92 cells; • Human mantle cell lymphoma Jeko-1 cells; • Human hepatocellular carcinoma HepG2 cells; and • Human colon adenocarcinoma SW-480 cells.
The assays were carried out according to the following protocol, which is described as an example for the MV4-11 cells:
Ten thousand MV4-11 cells were inoculated into each well of a 96-well microplate (manufactured by Corning Corp.) using Iscove's MDM medium (culture medium) containing 10% fetal calf serum (FCS). The same day, a dimethyl sulfoxide (DMSO) solution of each test compound prepared in a concentration of 10 mmol/L was further diluted with DMSO to the desired concentrations (0.1, 0.5, 1, 2.5, 5 and 10 micromol/L), and the diluted solution was added to each well. The individual wells were further cultured in 5% carbon dioxide at 37° C. for 72 hours. […] Briefly, 10 μl MTS (3-(4,5-Dimethyl-2-thiazolyl)-5-(carboxymethoxyphenyl)-2-(4-sulfophenyl)-2H-tetrazolium was added to each well, and culturing was performed in 5% carbon dioxide at 37° C. for 2 hours. After this incubation and using a microplate spectrophotometer (Synergy 2 multi-mode microplate reader (BioTek)), the absorbance of each well was measured at 490 nm. The value for cells not incubated with a test compound was designated as 100%. By comparing these values with the absorbance difference obtained at the well in which each test compound was added, the cell viability (% viability) after treatment with the test compound was calculated.

DYRK1 = DYRK1 (Homo sapiens (Human), UniProt Q13627); assay: ADP-Glo Kinase Assay, DYRK1; assay type: biochemical; conditions: 1 μM compound; for inhibition at 1 µM: read-out: DYRK1A % INH (1 μM)
Outline: as §1

Chain of Pim-1 (P11309 whole entry): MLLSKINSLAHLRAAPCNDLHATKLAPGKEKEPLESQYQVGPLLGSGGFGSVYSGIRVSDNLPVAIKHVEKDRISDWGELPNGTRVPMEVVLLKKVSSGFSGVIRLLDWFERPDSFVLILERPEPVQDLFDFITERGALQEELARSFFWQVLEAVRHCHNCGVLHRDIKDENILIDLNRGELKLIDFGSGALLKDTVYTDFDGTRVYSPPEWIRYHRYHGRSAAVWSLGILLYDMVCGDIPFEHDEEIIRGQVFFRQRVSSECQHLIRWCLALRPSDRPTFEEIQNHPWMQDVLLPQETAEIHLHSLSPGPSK
Chain of FLT3wt (P36888 27-993): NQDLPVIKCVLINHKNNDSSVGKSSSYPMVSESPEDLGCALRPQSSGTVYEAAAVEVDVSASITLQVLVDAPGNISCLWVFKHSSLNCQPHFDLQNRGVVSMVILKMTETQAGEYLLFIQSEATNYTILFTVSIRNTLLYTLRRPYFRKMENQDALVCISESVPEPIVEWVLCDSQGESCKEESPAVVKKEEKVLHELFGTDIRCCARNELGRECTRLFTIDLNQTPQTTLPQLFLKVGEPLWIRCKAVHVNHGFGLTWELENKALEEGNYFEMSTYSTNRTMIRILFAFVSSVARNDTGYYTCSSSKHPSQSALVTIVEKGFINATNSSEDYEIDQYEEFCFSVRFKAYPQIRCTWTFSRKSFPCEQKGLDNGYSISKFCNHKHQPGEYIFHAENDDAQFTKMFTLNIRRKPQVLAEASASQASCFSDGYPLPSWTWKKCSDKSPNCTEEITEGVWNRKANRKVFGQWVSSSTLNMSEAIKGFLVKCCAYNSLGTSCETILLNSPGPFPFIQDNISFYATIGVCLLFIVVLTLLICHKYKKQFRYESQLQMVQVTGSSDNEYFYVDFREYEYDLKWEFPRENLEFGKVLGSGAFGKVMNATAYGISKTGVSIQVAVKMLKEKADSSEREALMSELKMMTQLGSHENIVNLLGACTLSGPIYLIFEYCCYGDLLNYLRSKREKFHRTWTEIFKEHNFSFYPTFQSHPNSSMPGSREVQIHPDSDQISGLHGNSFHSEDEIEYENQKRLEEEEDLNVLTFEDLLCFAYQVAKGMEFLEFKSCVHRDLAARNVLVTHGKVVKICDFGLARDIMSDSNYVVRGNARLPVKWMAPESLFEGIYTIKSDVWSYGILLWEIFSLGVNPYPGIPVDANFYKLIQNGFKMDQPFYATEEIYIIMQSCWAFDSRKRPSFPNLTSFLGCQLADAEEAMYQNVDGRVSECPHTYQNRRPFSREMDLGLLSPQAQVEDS
Chain of Pim-2 (Q9P1W9 whole entry): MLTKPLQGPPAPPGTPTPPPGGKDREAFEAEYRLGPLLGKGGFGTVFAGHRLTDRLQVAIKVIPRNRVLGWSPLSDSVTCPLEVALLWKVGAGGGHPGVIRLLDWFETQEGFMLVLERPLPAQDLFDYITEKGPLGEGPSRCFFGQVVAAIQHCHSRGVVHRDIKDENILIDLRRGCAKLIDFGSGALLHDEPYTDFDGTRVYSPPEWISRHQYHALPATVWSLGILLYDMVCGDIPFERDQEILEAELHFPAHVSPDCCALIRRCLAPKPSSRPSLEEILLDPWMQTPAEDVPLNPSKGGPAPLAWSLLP

Row | SMILES | inhibition at 1 µM (Pim-1) [%] | inhibition at 1 µM (Pim-2) [%] | inhibition at 1 µM (Pim-3) [%] | inhibition at 1 µM (FLT3wt) [%] | inhibition at 1 µM (CDK2/E) [%] | IC50 (MV4-11 cells; Homo sapiens, MV4-11, 72 h) [µM] | IC50 (HEL92 cells; Homo sapiens, 72 h) [µM] | IC50 (HepG2 cells; Homo sapiens, HepG2, 72 h) [µM] | IC50 (SW-480 cells; Homo sapiens, SW480) [µM] | inhibition at 1 µM (DYRK1) [%] | Pim-1 % INH (1 μM) (Pim-1) [%] | Pim-2 % INH (1 μM) (Pim-2) [%] | Pim-3 % INH (1 μM) (Pim-3) [%] | Flt3wt % INH (1 μM) (FLT3wt) [%] | CDK2/E % INH (1 μM) (CDK2/E) [%] | DYRK1A % INH (1 μM) (DYRK1) [%] | IC50 (MV4-11 cells; 72 hours) [µM] | IC50 (HEL92 cells; 72 hours) [µM] | IC50 (HepG2 cells; 72 hours) [µM] | IC50 (SW-480 cells) [µM]
1 | CCn1c(NCCCN)nc2c([N+](=O)[O-])c(Br)c(Br)cc21 [Example 1C] | 85 | 28 | 70 | < 5 | < 5 | 3.1 | > 10 | 4.1 | 7.4 |  |  |  |  |  |  |  |  |  |  | 
2 | CCn1c(N2CCCN(C)CC2)nc2c([N+](=O)[O-])c(Br)c(Br)cc21 [Example 22M, 5,6-dibromo-1-ethyl-2-(4-methyl-1,4-diazepan-1-yl)-4-nitro-1H-1,3-benzodiazole] | 74 | 18 | 29 | < 5 | < 5 | 3.7 | 6.5 | 5 | 4.7 |  |  |  |  |  |  |  |  |  |  | 
3 | CC(C)n1c(NCCCN)nc2c([N+](=O)[O-])c(Br)c(Br)cc21 [Example 1L] | > 95 | 58 | > 95 | 21 | 32 | 1.2 | 5.7 | 1.6 | 3.3 | 47 |  |  |  |  |  |  |  |  |  | 
4 | CCn1c(N2CCCC(N)C2)nc2c([N+](=O)[O-])c(Br)c(Br)cc21.Cl (stereo not shown) [Example 1F] |  |  |  |  |  |  |  |  |  |  | 90 | 36 | 83 | 6 | <5 | 20 | 2.3 | 5.0 | 3.3 | 3.3
5 | CCn1c(N2CCNC(C)(C)C2)nc2c([N+](=O)[O-])c(Br)c(Br)cc21 [Example 22W, 5,6-dibromo-2-(3,3-dimethylpiperazin-1-yl)-1-ethyl-4-nitro-1H-1,3-benzodiazole] | 80 |  | 57 | < 5 | < 5 | 1.7 | 9.5 | 1.5 | 4.9 |  |  |  |  |  |  |  |  |  |  | 
6 | CCn1c(N2CCNC(C)C2)nc2c([N+](=O)[O-])c(Br)c(Br)cc21 (stereo not shown) [Example 22X, 5,6-dibromo-1-ethyl-2-(3-methylpiperazin-1-yl)-4-nitro-1H-1,3-benzodiazole] | 74 |  | 56 | < 5 | < 5 | 0.7 | 8.7 | 2.3 | 5 | 39 |  |  |  |  |  |  |  |  |  | 
7 | C#CCn1c(N2CCNCC2)nc2c([N+](=O)[O-])c(Br)c(Br)cc21 [Example 2B, 5,6-dibromo-4-nitro-2-(piperazin-1-yl)-1-(prop-2-yn-1-yl)-1H-1,3-benzodiazole hydrochloride] | 53 |  |  | < 5 | < 5 | 3.1 | 6.7 | 1.4 | 5.5 | 61 |  |  |  |  |  |  |  |  |  | 
8 | C#CCn1c(NCCCN)nc2c([N+](=O)[O-])c(Br)c(Br)cc21 [Example 2G, N-(3-aminopropyl)-5,6-dibromo-4-nitro-1-(prop-2-yn-1-yl)-1H-1,3-benzodiazol-2-amine hydrochloride] | 71 |  | 34 | 10 | < 5 | 2.3 | 6 | 1.3 | 3.1 | 25 |  |  |  |  |  |  |  |  |  | 
9 | CCn1c(NCC2CCN(CCN(C)C)C2)nc2c([N+](=O)[O-])c(Br)c(Br)cc21 (stereo not shown) [Example 22O, 5,6-dibromo-N-({1-[2-(dimethylamino)ethyl]pyrrolidin-3-yl}methyl)-1-ethyl-4-nitro-1H-1,3-benzodiazol-2-amine] |  |  |  |  |  | 2.8 | 2.5 | 1.4 | 1.4 |  |  |  |  |  |  |  |  |  |  | 
